Legend:
[1] = test system: rodent models of cognitive impairment; parameters: method as in PMID 10234025, PMID 11707427, PMID 3252173, PMID 14980384; details: cited from earlier work
[2] = cited from earlier work
[3] = test system: dendritic spine density in the hippocampus; parameters: method as in PMID 26769413; details: cited from earlier work
[4] = biological target: insulin-regulated aminopeptidase (IRAP) (Homo sapiens, UniProt Q9UIQ6); details: for IC50 higher than compound 37: compared with compound 37
Chain of insulin-regulated aminopeptidase (IRAP) (Q9UIQ6 whole entry): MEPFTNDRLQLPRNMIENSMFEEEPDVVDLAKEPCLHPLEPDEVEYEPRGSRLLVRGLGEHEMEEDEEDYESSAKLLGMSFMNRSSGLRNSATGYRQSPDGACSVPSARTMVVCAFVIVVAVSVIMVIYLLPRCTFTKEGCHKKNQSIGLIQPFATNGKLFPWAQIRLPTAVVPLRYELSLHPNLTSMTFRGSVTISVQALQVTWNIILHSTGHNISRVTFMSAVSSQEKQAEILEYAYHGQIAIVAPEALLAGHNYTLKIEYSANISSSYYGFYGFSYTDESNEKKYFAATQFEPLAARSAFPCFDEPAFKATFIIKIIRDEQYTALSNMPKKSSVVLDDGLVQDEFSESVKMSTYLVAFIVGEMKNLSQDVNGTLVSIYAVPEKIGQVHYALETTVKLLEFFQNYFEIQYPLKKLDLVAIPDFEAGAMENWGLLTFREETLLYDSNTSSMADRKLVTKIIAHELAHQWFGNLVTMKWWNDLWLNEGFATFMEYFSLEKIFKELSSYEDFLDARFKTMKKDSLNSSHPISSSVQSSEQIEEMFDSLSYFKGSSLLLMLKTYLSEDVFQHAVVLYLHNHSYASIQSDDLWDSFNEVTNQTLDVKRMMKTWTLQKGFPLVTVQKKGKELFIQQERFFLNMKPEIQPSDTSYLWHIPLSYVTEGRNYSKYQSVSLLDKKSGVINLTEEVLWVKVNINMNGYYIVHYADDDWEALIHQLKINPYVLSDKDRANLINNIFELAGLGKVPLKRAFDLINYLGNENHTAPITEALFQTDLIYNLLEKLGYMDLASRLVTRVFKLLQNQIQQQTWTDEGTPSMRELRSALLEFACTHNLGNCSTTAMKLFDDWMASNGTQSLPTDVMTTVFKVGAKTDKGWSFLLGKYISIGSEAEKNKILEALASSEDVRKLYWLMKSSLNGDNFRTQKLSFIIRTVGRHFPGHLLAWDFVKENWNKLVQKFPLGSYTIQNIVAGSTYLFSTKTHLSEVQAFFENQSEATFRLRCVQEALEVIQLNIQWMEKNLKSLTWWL

IC50 [4]	IC50 higher than compound 37 [4]	Compound	performance in rodent models of cognitive impairment [1]	susceptibility to proteolytic degradation in vivo [2]	dendritic spine density in the hippocampus [3]
		Val–Tyr–Ile–His–Pro–Phe [Ang IV]	improves performance in rodent models of cognitive impairment		
		N[C@H]1CCSSC[C@@H](C(=O)NCc2ccccc2CC(=O)O)NC(=O)C[C@H](Cc2ccc(O)cc2)NC1=O [HA08]		susceptible to proteolytic degradation in vivo	increase dendritic spine density in the hippocampus
906 nM	14 fold	N[C@H]1CCSSC[C@@H](C(=O)NCc2cccc(C(=O)O)c2)NC(=O)C[C@H](Cc2ccc(O)cc2)NC1=O [Compound 38]			
2950 nM	46 fold	N[C@H]1CCSSC[C@@H](C(=O)NCc2ccc(C(=O)O)cc2)NC(=O)C[C@H](Cc2ccc(O)cc2)NC1=O [Compound 39]			

From PMC12378631, “Novel macrocyclic peptidomimetics targeting the insulin-regulated aminopeptidase (IRAP): design, synthesis and evaluation” (RSC Medicinal Chemistry, 2025)
